Consider 4 molecules from US20030144271A1, “Methods for the treatment of substance abuse” (priority 2000, published 2003).

Where “and” joins values, the source holds several entries; their conditions need not be identical. Identical values can stand only once. Entries after “also recorded” stand apart in the source; their conditions may differ.

The test system of data set [1] is alcohol / volatile inhalant dependent patients. Nature of the data set: Open Alc/Inhalant therapeutic (N + A + CCB) drug dependence trial (Example 7, Table 2). The data set is classed as in vivo, human. Particulars: A666 × 3 mg/d; for Key Parameters: Audit Score: score out of 40; for Key Parameters: Abstinence / Key Parameters: Craving / Key Parameters: Relapse: scale 0-10. How it is done:
(v) Scoring of key parameters was based on questionaries completed by the subject. For the audit score, an initial base-line questionnaire preceding treatment and subsequently, a similar weekly questionnaire, following each week of treatment was conducted by the trial clinician and trial subject. The subject's answers were assigned a value and the score for all 10 questions totalled (out of 40). A total of 13+ is indicated as alcohol dependent, 8+ as a hazardous drinker and less than 8 a safe drinker, with 0 indicating abstinence. Levels of Craving, tendency to Relapse and degree of Abstinence were rated by the subject on a scale of 0-10, with 0,0 indicating absence of craving and relapse respectively, and 10 indicating total abstinence from alcohol and volatile inhalant.
Two patients were treated in an open trial with a daily dose of naltrexone, acamprosate and verapamil. Key parameters were evaluated as per Example 6. The results are presented in Table 2, depicting treatment duration, patient characteristics, key parameters and improved parameters and side-effects.

In data set [2] the test system is detoxified opiate subjects. Description: Double-blind placebo-controlled cross-over trial in detoxified opiate subjects (Table 1A, comparative). Format: in vivo, human. The note with it: weekly; for Abstinence: scale 0-10, 10 = total abstinence. The text has this:
(ii) To permit their optimal comparison by the same test subject, treatments A & C were both given for the same and longest length of time available before the trial was terminated. […] The actual drug components of treatments A, B and C for each trial subject, and the duration of each treatment are also shown in Table 1 in each case.
(v) Scoring of key parameters was based on questionaries completed by the subject. […] The subject's answers were assigned a value and the score for all 10 questions totalled (out of 40). A total of 13+ is indicated as alcohol dependent, 8+ as a hazardous drinker and less than 8 a safe drinker, with 0 indicating abstinence. Levels of Craving, tendency to Relapse and degree of Abstinence were rated by the subject on a scale of 0-10, with 0,0 indicating absence of craving and relapse respectively, and 10 indicating total abstinence from alcohol and volatile inhalant.
[…] […] However, many opiate (or other substance) addicts also have a secondary addiction to alcohol or use alcohol excessively when they are unable to obtain the opiate of addiction. The present invention can also be used to treat such multi-substance addicted subjects.

In data set [3] the test system is detoxified alcoholic patients. Description: N-of-1 double-blind placebo-controlled cross-over clinical trial in detoxified alcoholic patients (Example 6, Table 1). The data set is classed as in vivo, human. The note with it: 5 mg, in two subjects. The protocol:
The patient characteristics, their randomised active and control treatments and their outcomes, and the key and ancillary parameters on which the progressive comparative weekly safeties and efficacies of the active and control treatments were determined for each of the 6 double-blind trial subjects are all shown in Table 1.
(i) Each trial subject received sequentially 3 different but operationally-related individual treatments, each on an oral once daily basis, labelled, for convenience, A (which may randomly be an active or control treatment), B (wash-out) and C (which may also randomly be a control or […])
(ii) To permit their optimal comparison by the same test subject, treatments A & C were both given for the same and longest length of time available before the trial was terminated. Patient and clinician bias in interpretation was minimised or excluded by giving these treatments on a randomised double-blind basis which ensured that neither knew if the active or control treatment was given first or last. Thus sometimes, labelled treatment A or C was the active or control treatment and vice versa. The actual drug components of treatments A, B and C for each trial subject, and the duration of each treatment are also shown in Table 1 in each case. […]

The conditions of data set [4]: in vivo; cited from earlier work.

In the case of `CC(=O)NCCCS(=O)(=O)O` [A666 × 3], the “Key Parameters: Audit Score” value in data set [1] (subject 1 (Alc 20+ Units/d), 01/07/00) came out at 37. In data set [1] (subject 1, 01/07/00), the “Improved (1) Ancillary Parameters: Energy” value came out at 0, the “Improved (1) Ancillary Parameters: In-Control” value was 0, the “Improved (1) Ancillary Parameters: Thinking” value was 0 and the “Patient's View” value is 0. In data set [1] (subject 1, 01/07/00), the Side-effects result is “Nil”, the “Key Parameters: Abstinence” value is 0, the “Key Parameters: Craving” value is on record as 8 and the “Key Parameters: Relapse” value was found to be 10. Moreover, in data set [1] (subject 1, 09/07/00), the “Improved (1) Ancillary Parameters: Energy” value is 0, the “Improved (1) Ancillary Parameters: Thinking” value amounted to 0, the “Patient's View” value is listed as “Progress+” and the Side-effects result is “Nil”. Also, in data set [1] (subject 1, 09/07/00), the “Key Parameters: Abstinence” value is 1, the “Key Parameters: Craving” value came out at 7, the “Key Parameters: Relapse” value is 8 and the “Key Parameters: Audit Score” value came to 37.
Take `O=C1CC[C@@]2(O)[C@H]3Cc4ccc(O)c5c4[C@@]2(CCN3CC2CC2)[C@H]1O5` [N25, Naltrexone]: in data set [2], the Abstinence is 10 and 8; the “Patient's View” value was “Progress+; also recorded: Progress++; also recorded: Progress+++”.
With `O=C1CC[C@@]2(O)[C@H]3Cc4ccc(O)c5c4[C@@]2(CCN3CC2CC2)[C@H]1O5` [N25 + Pl], in data set [2] (scale 0-10, 0 = absence, listed as N5 + Pl), the Relapse was 0. The Abstinence in data set [2] (listed as N5 + Pl) is recorded as 10. Moreover, the “Patient's View” value in data set [2] is “Progress 0”; in data set [2] (assessment date 03/11/00), “Progress +/−”; in data set [2] (assessment date 15/11/00) it was “Progress +”; in data set [2] (listed as N5 + Pl), “Progress ++”; in data set [2] (listed as NAll25 + Pl, assessment date 03/11/00) it was “Progress+/−”; in data set [2] (listed as NAll25 + Pl, assessment date 15/11/00) it was “Progress+”.
In the case of `CCOC(=O)C1=C(COCCN)NC(C)=C(C(=O)OC)C1c1ccccc1Cl` (centres unmarked) [amlodipine], the “Side-effects of the administered dose” value in data set [3] is “a number of initial transient side-effects”. In data set [4], the “time to reach a plateau plasma concentration” value is 5 to 10 days.
